The data set can be described thus: Test 1-3: water evaporation rate of aqueous composition in open dish. It is filed as physicochemical. To be noted: Test 2. Here is the method:
Five grams of each of samples 1 to 15 having components shown in Table 1 were placed in respective dishes having an opening area of 13.85 cm^2 and were left at a humidity of 30% and a temperature of 30° C. Changes in weight of each sample were measured 1, 3, 5, 7, 12, 18, and 24 hr later. The slope of the changes in weight, the n of nX+m (X represents time (hr)) calculated by a least-squares method, was defined as the water evaporation rate (unit: mg/h), and the absolute value thereof was plotted. The test was conducted three times for each sample, and the average value thereof was determined. Note that a lower water evaporation rate means higher inhibition of evaporation.
Changes in weight of samples 15 to 25 shown in Table 3 were measured under the same conditions as in Test 1, and water evaporation rates were determined.
Changes in weight of samples of Examples 1 to 7 and Comparative Examples 1 to 7 having components shown below were measured under the same conditions as in Test 1, and water evaporation rates were determined. In addition, viscosities at 25° C. were measured with a B-type viscometer (Vismetron viscometer: model VS-A1, Rotor No. 1, 12 rotations, 30 sec).

These results are taken from patent publication US20130039871A1, “AQUEOUS COMPOSITION CONTAINED IN CONTAINER” (KAO CORPORATION, priority 2010, published 2013).

Some results are limits rather than exact numbers.

On to “polyoxyethylene(2) behenyl ether [polyoxyethylene behenyl ether]”, for which the “Amount showing a high water-evaporation inhibiting effect” value was at least 0.2 % by mass and the “Amount showing a water-evaporation inhibiting effect” value is recorded as at least 0.1 % by mass.
